Experimental data reported in paper PMC4904262 (ACS Medicinal Chemistry Letters, 2016).

How the values were obtained:
FLT4 = FLT4 (Homo sapiens, UniProt P35916); assay: biochemical; details: read-out: FLT4 inhibition
ASK1 = ASK1 (Homo sapiens, UniProt Q99683); details: 1 µM, ATP at Km
AXL = AXL (Homo sapiens, UniProt P30530); details: 1 µM, ATP at Km
BMX = BMX (Homo sapiens, UniProt P51813); details: 1 µM, ATP at Km
BRSK1 = BRSK1 (Homo sapiens, UniProt Q8TDC3); details: 1 µM, ATP at Km
CDK5/P35 = CDK5/P35 (Homo sapiens, UniProt Q00535); details: 1 µM, ATP at Km
CHK1 = CHK1 (Homo sapiens, UniProt O14757); details: 1 µM, ATP at Km
CHK2 = CHK2 (Homo sapiens, UniProt O96017); details: 1 µM, ATP at Km
CSK = CSK (Homo sapiens, UniProt P41240); details: 1 µM, ATP at Km
EGFR = EGFR (Homo sapiens, UniProt P00533); details: 1 µM, ATP at Km
EPHA4 = EPHA4 (Homo sapiens, UniProt P54764); details: 1 µM, ATP at Km
EPHA3 = EPHA3 (Homo sapiens, UniProt P29320); details: 1 µM, ATP at Km
EPHA5 = EPHA5 (Homo sapiens, UniProt P54756); details: 1 µM, ATP at Km
FGR = FGR (Homo sapiens, UniProt P09769); details: 1 µM, ATP at Km
FLT1 = FLT1 (Homo sapiens, UniProt P17948); details: 1 µM, ATP at Km
IGF-1R = IGF-1R (Homo sapiens, UniProt P08069); details: 1 µM, ATP at Km
IKKBETA = IKKBETA (Homo sapiens, UniProt O14920); details: 1 µM, ATP at Km
ITK = ITK (Homo sapiens, UniProt Q08881); details: 1 µM, ATP at Km
KDR = KDR (Homo sapiens, UniProt P35968); details: 1 µM, ATP at Km
MARK1 = MARK1 (Homo sapiens, UniProt Q9P0L2); details: 1 µM, ATP at Km
MKK6 = MKK6 (Homo sapiens, UniProt P52564); details: 1 µM, ATP at Km
MSK2 = MSK2 (Homo sapiens, UniProt O75676); details: 1 µM, ATP at Km
MSSK1 = MSSK1 (Homo sapiens, UniProt Q9UPE1); details: 1 µM, ATP at Km
MST1 = MST1 (Homo sapiens, UniProt Q13043); details: 1 µM, ATP at Km
MST3 = MST3 (Homo sapiens, UniProt Q9Y6E0); details: 1 µM, ATP at Km
MUSK = MUSK (Homo sapiens, UniProt O15146); details: 1 µM, ATP at Km
PKBGAMMA = PKBGAMMA (Homo sapiens, UniProt Q9Y243); details: 1 µM, ATP at Km
PKCBETAI = PKCBETAI (Homo sapiens, UniProt P05771); details: 1 µM, ATP at Km
PKCDELTA = PKCDELTA (Homo sapiens, UniProt Q05655); details: 1 µM, ATP at Km
PKCGAMMA = PKCGAMMA (Homo sapiens, UniProt P05129); details: 1 µM, ATP at Km
PKCZETA = PKCZETA (Homo sapiens, UniProt Q05513); details: 1 µM, ATP at Km
ROCK-I = ROCK-I (Homo sapiens, UniProt Q13464); details: 1 µM, ATP at Km
RON = RON (Homo sapiens, UniProt Q04912); details: 1 µM, ATP at Km
SAPK3 = SAPK3 (Homo sapiens, UniProt P53778); details: 1 µM, ATP at Km
STK33 = STK33 (Homo sapiens, UniProt Q9BYT3); details: 1 µM, ATP at Km
ZIPK = ZIPK (Homo sapiens, UniProt O43293); details: 1 µM, ATP at Km
CK1GAMMA1 = CK1GAMMA1 (Homo sapiens, UniProt Q9HCP0); details: 1 µM, ATP at Km
TXK = TXK (Homo sapiens, UniProt P42681); details: 1 µM, ATP at Km
MELK = MELK (Homo sapiens, UniProt Q14680); details: 1 µM, ATP at Km
TEC ACTIVATED = TEC ACTIVATED (Homo sapiens, UniProt P42680); details: 1 µM, ATP at Km
PI3 KINASE (P85A) = PI3 KINASE (P85A) (Homo sapiens, UniProt P42336); details: 1 µM, ATP at Km
PEK = PEK (Homo sapiens, UniProt Q9NZJ5); details: 1 µM, ATP at Km
PIP4K2A = PIP4K2A (Homo sapiens, UniProt P48426); details: 1 µM, ATP at Km
AURKB = AURKB (Homo sapiens, UniProt Q96GD4); details: 1 µM, ATP at Km
PRKAA1 = PRKAA1 (Homo sapiens, UniProt Q13131); details: 1 µM, ATP at Km

PI3 KINASE (P85A), sequence (P42336 whole entry): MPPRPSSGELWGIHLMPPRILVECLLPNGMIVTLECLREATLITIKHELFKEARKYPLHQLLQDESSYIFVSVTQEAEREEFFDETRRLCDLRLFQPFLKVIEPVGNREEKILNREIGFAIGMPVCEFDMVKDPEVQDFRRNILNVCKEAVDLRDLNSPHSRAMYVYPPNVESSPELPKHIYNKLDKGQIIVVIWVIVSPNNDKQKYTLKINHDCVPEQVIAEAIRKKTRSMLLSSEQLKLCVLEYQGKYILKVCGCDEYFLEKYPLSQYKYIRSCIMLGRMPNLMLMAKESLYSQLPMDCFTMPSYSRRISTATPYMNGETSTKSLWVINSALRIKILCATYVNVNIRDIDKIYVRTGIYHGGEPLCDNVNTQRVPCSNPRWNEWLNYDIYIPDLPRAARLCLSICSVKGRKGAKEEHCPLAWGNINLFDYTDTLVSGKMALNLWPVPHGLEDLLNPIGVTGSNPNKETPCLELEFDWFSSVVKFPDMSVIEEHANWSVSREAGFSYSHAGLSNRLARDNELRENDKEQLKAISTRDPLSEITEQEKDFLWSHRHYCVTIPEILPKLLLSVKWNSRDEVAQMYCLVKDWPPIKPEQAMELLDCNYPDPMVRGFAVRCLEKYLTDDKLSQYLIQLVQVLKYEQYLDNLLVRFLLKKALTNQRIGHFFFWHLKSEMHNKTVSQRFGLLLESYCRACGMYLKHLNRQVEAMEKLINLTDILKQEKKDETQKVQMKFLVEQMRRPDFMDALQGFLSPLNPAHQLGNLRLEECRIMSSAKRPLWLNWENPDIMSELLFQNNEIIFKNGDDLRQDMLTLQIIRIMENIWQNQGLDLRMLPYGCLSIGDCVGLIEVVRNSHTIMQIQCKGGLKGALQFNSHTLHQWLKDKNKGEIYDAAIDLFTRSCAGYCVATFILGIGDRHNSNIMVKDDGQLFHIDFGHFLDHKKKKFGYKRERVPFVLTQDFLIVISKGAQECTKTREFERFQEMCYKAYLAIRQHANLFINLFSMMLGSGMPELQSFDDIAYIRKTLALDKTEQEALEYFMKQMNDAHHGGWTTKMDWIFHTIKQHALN
PI3 KINASE (P85A), sequence (P27986 whole entry partner): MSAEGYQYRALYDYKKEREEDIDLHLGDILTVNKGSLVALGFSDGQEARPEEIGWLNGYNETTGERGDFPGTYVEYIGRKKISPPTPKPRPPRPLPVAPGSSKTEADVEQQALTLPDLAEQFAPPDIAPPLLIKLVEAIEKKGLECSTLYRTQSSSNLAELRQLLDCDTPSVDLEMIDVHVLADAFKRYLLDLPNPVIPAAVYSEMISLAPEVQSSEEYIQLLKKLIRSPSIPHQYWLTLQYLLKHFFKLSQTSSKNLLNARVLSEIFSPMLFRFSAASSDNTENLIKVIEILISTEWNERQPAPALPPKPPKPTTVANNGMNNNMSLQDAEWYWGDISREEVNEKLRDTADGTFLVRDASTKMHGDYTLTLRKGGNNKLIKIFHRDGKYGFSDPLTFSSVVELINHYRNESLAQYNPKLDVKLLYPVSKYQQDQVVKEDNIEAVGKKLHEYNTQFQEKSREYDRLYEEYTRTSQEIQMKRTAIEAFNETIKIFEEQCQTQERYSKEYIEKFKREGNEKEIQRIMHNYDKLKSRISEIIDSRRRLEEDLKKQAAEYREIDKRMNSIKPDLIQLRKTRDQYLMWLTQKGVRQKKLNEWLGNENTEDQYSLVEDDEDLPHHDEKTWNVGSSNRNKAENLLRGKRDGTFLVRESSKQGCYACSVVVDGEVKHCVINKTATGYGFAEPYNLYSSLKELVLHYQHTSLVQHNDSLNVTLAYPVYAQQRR
CHK1, sequence (O14757 whole entry): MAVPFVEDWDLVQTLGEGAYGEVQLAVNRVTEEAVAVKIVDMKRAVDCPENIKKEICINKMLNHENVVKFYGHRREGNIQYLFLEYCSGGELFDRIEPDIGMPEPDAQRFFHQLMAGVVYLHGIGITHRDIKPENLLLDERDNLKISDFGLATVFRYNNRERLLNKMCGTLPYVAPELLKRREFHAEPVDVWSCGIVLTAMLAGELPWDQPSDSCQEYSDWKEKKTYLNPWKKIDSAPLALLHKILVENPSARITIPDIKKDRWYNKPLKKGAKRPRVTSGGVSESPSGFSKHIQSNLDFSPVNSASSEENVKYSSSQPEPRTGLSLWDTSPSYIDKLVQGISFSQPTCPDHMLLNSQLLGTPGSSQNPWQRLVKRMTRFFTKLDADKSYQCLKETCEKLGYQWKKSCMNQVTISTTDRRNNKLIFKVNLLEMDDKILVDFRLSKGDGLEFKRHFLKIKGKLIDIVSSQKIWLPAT
ROCK-I, sequence (Q13464 whole entry): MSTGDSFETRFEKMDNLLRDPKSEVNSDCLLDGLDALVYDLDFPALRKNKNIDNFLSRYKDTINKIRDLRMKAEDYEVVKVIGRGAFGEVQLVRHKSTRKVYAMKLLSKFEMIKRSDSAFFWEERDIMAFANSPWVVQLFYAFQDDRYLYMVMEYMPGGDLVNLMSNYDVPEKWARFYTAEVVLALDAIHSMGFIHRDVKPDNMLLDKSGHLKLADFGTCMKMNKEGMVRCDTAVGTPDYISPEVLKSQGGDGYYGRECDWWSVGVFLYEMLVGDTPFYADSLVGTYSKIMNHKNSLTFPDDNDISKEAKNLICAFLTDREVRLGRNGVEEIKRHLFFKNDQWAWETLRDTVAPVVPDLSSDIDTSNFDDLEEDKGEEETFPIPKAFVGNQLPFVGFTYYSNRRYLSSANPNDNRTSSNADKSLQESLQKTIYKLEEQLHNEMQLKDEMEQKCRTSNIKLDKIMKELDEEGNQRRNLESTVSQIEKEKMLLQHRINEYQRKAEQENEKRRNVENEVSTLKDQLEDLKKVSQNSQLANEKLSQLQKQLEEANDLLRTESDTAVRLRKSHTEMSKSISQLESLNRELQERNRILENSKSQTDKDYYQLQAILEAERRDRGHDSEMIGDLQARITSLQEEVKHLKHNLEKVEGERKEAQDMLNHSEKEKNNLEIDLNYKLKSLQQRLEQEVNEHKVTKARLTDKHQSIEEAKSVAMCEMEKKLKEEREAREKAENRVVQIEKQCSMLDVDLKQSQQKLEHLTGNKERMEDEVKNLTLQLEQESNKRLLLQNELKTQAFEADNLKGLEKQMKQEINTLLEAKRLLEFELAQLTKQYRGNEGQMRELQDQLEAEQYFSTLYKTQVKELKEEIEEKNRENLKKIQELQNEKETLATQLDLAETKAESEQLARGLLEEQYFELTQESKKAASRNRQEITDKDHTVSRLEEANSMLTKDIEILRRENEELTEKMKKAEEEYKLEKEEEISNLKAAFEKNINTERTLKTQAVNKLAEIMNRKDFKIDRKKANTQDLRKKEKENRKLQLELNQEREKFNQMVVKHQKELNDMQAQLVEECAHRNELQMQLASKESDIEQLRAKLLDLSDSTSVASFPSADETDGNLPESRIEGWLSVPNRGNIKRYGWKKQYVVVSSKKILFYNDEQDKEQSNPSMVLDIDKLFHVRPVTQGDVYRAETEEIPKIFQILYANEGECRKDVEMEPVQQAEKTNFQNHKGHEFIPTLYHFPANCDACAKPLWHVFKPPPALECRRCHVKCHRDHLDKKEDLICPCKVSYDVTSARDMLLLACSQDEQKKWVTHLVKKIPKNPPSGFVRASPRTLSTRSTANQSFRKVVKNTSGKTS
MKK6, sequence (P52564 whole entry): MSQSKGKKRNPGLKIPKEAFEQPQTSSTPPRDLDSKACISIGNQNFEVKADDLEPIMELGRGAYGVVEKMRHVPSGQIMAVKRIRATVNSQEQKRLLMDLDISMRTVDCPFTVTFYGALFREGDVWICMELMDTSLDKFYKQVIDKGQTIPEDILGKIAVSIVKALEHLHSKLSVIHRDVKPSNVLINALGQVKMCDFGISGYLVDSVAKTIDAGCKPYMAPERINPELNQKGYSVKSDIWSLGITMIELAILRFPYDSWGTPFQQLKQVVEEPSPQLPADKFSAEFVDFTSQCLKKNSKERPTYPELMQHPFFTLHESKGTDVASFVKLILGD
PIP4K2A, sequence (P48426 whole entry): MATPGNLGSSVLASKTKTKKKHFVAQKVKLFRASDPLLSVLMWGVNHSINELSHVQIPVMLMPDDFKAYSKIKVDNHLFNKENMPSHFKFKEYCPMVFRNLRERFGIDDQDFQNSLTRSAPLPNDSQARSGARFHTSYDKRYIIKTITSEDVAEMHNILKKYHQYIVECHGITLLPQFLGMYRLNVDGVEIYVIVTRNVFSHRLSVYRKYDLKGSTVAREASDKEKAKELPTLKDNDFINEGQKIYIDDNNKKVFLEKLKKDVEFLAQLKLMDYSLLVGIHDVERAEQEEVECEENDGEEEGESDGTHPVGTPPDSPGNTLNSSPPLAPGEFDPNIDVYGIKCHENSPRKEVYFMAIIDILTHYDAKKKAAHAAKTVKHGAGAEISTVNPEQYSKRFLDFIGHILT

In the case of COC1CN(C(=O)c2ccc3c(N)ncc(-c4ccc(-c5cnn(C)c5)cc4)c3n2)C1 [Compound 51], the inhibition at 1 µM (FLT4) is reported as 54%, the percentage effect (ASK1) is reported as 0% and the percentage effect (AXL) is reported as 27%. For the same compound, the percentage effect (BMX) was -3%, the percentage effect (BRSK1) was 6% and the percentage effect (CDK5/P35) was 8%. It also gave a percentage effect (CHK1) of -8%, a percentage effect (CHK2) of -1% and a percentage effect (CSK) of 21%. The percentage effect (EGFR) was -45%, the percentage effect (EPHA4) was 2% and the percentage effect (EPHA3) was 10%. The percentage effect (EPHA5) was -1%, the percentage effect (FGR) was 19% and the percentage effect (FLT1) was -9%. It also gave a percentage effect (IGF-1R) of 19%, a percentage effect (IKKBETA) of -14% and a percentage effect (ITK) of -6%. The percentage effect (KDR) was 0%, the percentage effect (MARK1) was -5% and the percentage effect (MKK6) was -4%. For the same compound, the percentage effect (MSK2) was 7%, the percentage effect (MSSK1) was 7% and the percentage effect (MST1) was 9%. The percentage effect (MST3) was 7%, the percentage effect (MUSK) was 3% and the percentage effect (PKBGAMMA) was -4%. It also gave a percentage effect (PKCBETAI) of -1%, a percentage effect (PKCDELTA) of 4% and a percentage effect (PKCGAMMA) of -1%. The percentage effect (PKCZETA) was 4%, the percentage effect (ROCK-I) was 32% and the percentage effect (RON) was 15%. The percentage effect (SAPK3) was -11%, the percentage effect (STK33) was -15% and the percentage effect (ZIPK) was 25%. The percentage effect (CK1GAMMA1) was -8%, the percentage effect (TXK) was -13% and the percentage effect (MELK) was -10%. It also gave a percentage effect (TEC ACTIVATED) of -18%, a percentage effect (PI3 KINASE (P85A)) of -12% and a percentage effect (PEK) of -6%. The percentage effect (PIP4K2A) was -5%, the percentage effect (AURKB) was 0% and the percentage effect (PRKAA1) was -1%.

COC1CN(C(=O)c2ccc3c(N)ncc(-c4ccc(-c5cnn(C)c5)cc4)c3c2)C1 [Compound 59] was tested, and the inhibition at 1 µM (FLT4) was 62%, the percentage effect (ASK1) was -10% and the percentage effect (AXL) was -12%. The percentage effect (BMX) was 1%, the percentage effect (BRSK1) was 2% and the percentage effect (CDK5/P35) was -2%. For the same compound, the percentage effect (CHK1) was -9%, the percentage effect (CHK2) was -10% and the percentage effect (CSK) was 7%. The percentage effect (EGFR) was 14%, the percentage effect (EPHA4) was 1% and the percentage effect (EPHA3) was 10%. It also gave a percentage effect (EPHA5) of 3%, a percentage effect (FGR) of 7% and a percentage effect (FLT1) of -15%. For the same compound, the percentage effect (IGF-1R) was 9%, the percentage effect (IKKBETA) was 8% and the percentage effect (ITK) was 2%. The percentage effect (KDR) was -5%, the percentage effect (MARK1) was -14% and the percentage effect (MKK6) was -14%. It also gave a percentage effect (MSK2) of -12%, a percentage effect (MSSK1) of 13% and a percentage effect (MST1) of -10%. For the same compound, the percentage effect (MST3) was -34%, the percentage effect (MUSK) was -18% and the percentage effect (PKBGAMMA) was -6%. It also gave a percentage effect (PKCBETAI) of 15%, a percentage effect (PKCDELTA) of 0% and a percentage effect (PKCGAMMA) of 9%. It also gave a percentage effect (PKCZETA) of -13%, a percentage effect (ROCK-I) of 2% and a percentage effect (RON) of -11%. It also gave a percentage effect (SAPK3) of -11%, a percentage effect (STK33) of 1% and a percentage effect (ZIPK) of -5%. The percentage effect (CK1GAMMA1) was -8%, the percentage effect (TXK) was -7% and the percentage effect (MELK) was -8%. The percentage effect (TEC ACTIVATED) was 13%, the percentage effect (PI3 KINASE (P85A)) was 0% and the percentage effect (PEK) was 1%. The percentage effect (PIP4K2A) was 1%, the percentage effect (AURKB) was 14% and the percentage effect (PRKAA1) was -3%.
